Values quoted from earlier work as cited in US10888120B2, “Non-tobacco nicotine containing article” (Philip Morris Products S.A., priority 2013, dated 2021).

Conditions: "experienced" ENDS users (using ENDS for about 1 year)

CN1CCCC1c1cccnc1 (stereo not shown) [nicotine]
plasma nicotine concentration (Cmax): 10.3 ng/mL
